According to patent US20250345458A1, “COMPLEXING AGENT SALT FORMULATIONS OF PHARMACEUTICAL COMPOUNDS AT LOW STOICHIOMETRIC RATIOS” (Bexson Biomedical, Inc., priority 2022, published 2025):
Where “and” joins values, the source holds several entries; their conditions need not be identical. Identical values can stand only once. Marks after values point to notes of the source that are not given here.

Experiments:
[1] = Osmolality of API formulations (micro osmometer, triplicate); assay type: physicochemical
Procedure: Osmolality readings were obtained on an Advanced Instruments Advanced™ Micro Osmometer Model 3300 (Advanced Instruments, Inc. Norwood, MA, USA). Saline solutions (0.9% and 3%) were run as positive controls. Each sample was calculated as the mean from back-to-back triplicate measurements. When replicate batches were measured, data was reported as mean±SEM.
The procedure was performed on a 2 mL scale. […] Benzethonium chloride (20 μL of a 1% solution, 0.01% final concentration) was added via micropipette. The pH was adjusted to ˜7.00 with 2M sodium hydroxide, or either 1M or 2M HCl in some cases, and then the mixture was transferred to a 2 mL volumetric flask to be diluted with HPLC grade water. […]
Method 1: In a 5 mL borosilicate glass test tube which contained a Teflon-coated magnetic stir bar, Captisol®-Na+ ([…], H+ equivalents, moisture corrected) was dissolved in HPLC grade water (1.6-1.7 mL), API salt (HCl in most cases) (70 mg/mL FB equivalents) was added and the mixture was stirred until a homogenous transparent solution formed. Benzethonium chloride (20 μL of a 1% solution, giving a 0.01% final concentration) was added via micropipette. The pH was adjusted to ˜7.00 with 1M or 2M sodium hydroxide, or either 1M or 2M HCl in some cases, and then the mixture was transferred to a 2 mL volumetric flask to be diluted with HPLC grade water. […]
Benzethonium chloride (20 μL of a 1% solution, giving a 0.01% final concentration) was added via micropipette. The pH was adjusted to ˜7.00 with 1M or 2M sodium hydroxide, or either 1M or 2M HCl in some cases, and then the mixture transferred to a 2 mL volumetric flask to be diluted with HPLC grade water. […]
The solution was transferred to a 2 mL volumetric flask and diluted to the target volume with HPLC grade water. […]

[2] = pH of API formulations (pH meter); assay type: physicochemical; details: for final pH: after 2M NaOH
[3] = in water, cited from earlier work; for Reported Freebase Solubility: vendor or literature value
[4] = API-CapAcid salts prepared in ethanol, then 70 mg of solid added to 1 mL water (visual); assay type: physicochemical; details: for pH of the ethanol solution prior to titration: API FB 100 mg + CapAcid 1 molar equivalent (H^+) in 10 mL 200 proof ethanol; for dissolution of 70 mg of the ethanol-prepared API-CapAcid solid in 1 mL water: visual, vortexed
Procedure: The resulting solid API-CapAcid salts were then obtained as solids by evaporation of the ethanol, followed by lyophilization.
In a scintillation vial, a solution of API FB (100 mg) and CapAcid (1 molar equivalent, moisture corrected) was prepared by dissolving Cap Acid in 200 proof ethanol (5 mL) and then adding the freebase API. […] Whether or not the freebase dissolved after the second addition of ethanol, the initial pH, prior to titration, was recorded. The vial was then wrapped in foil and left uncovered in the hood to allow the ethanol to evaporate. After the ethanol fully evaporated, a small amount of HPLC grade water (3-5 mL) was added to each to see if the product would dissolve or become a suspension in the water. The solution was then lyophilized to remove the water. The product was ground with a stir rod and 70±0.1 mg was added to 1 mL of water to see if it would dissolve.

[5] = Osmolality of API formulations (micro osmometer, triplicate); assay type: physicochemical; details: API FB with Captisol® Sodium, 1 molar equivalent relative to the cyclodextrin, after 48 hours
[6] = Dissolution of API freebase in aqueous CapAcid / Captisol solutions at defined API:CapAcid ratios, visual inspection and NaOH titration
[7] = Visual dissolution / precipitation of API free base-CapAcid formulations at stated API:CapAcid ratios; assay type: physicochemical
[8] = literature value; cited from earlier work
[9] = 70 mg/mL API FB and 1 equivalent of 6M HCl in water
[10] = 70 mg/mL API FB, 1 equivalent of 6M HCl, 1.1 equivalents Captisol®-Na^+
[11] = *70 mg/mL API FB + molar equivalent of 6M HCl in water
[12] = API FB CapAcid formulation, 70 mg/mL API FB, 1.1 equivalents CapAcid (H^+ equivalents), after titration
[13] = CapAcid-API Freebase Formulation (70 mg/mL API FB, 1.1 molar equivalent CapAcid), after pH titration with NaOH or HCl
[14] = Captisol®-Na^+ formulation, *70 mg/mL API FB + 6M HCl, 1.1 molar equivalent Captisol®-Na^+
[15] = 70 mg/mL API FB, 1 equivalent 6M HCl, 1.1 equivalents Captisol®-Na^+, before NaOH/HCl
[16] = 70 mg/mL API FB, 1.1 equivalents CapAcid, before NaOH/HCl
[17] = 1:1 ratio of API to CapAcid (relative to the cyclodextrin), water
[18] = 2:1 ratio of API to CapAcid (relative to the cyclodextrin), water
[19] = API Salt (70 mg/mL API Salt in FB equivalent) in water
[20] = API salt 70 mg/mL (FB equivalents) in water
[21] = API salt Captisol®-Na^+ formulation, 70 mg/mL FB equivalent, 1.1 equivalents Captisol®-Na^+
[22] = Captisol®-Na^+ formulation, 70 mg/mL API Salt in FB equivalent, 1.1 molar equivalent Captisol®-Na^+
[23] = 70 mg/mL API salt (FB equivalent), 1.1 equivalents Captisol®-Na^+, before NaOH
[24] = Captisol®-Na^+ formulation, 70 mg/mL API Salt in FB equivalent, 1.1 molar equivalent Captisol®-Na^+, final pH
[25] = CapAcid-API Freebase Formulation (70 mg/mL API FB, 1.1 molar equivalent CapAcid), final pH after titration and dilution

## Nc1ccncc1N [Amifampridine, Pyridine-3,4-diamine]
[1]; [9]
  Osmolality: 740.3 mOsmol/kg
[1]; [10]
  Osmolality: 1023.3 mOsmol/kg
[1]; [11]
  Osmolality: 740.3*^ mOsm/kg
[1]; [12]
  Osmolality: 532.7 mOsmol/kg
[1]; [13]
  Osmolality: 532.7** mOsm/kg
[1]; [14]
  Osmolality: 1,023.3* mOsm/kg
[2]; [15]
  pH of the solution prior to titration: 9.27
[2]; [16]
  pH of the solution prior to titration: 9.19
[3]
  Reported Freebase Solubility: 7000 µg/mL

## COc1ccccc1OCCNCC(O)COc1cccc2[nH]c3ccccc3c12 (stereo not drawn) [Carvedilol]
[4]
  pH of the ethanol solution prior to titration: 0.82
  dissolution of 70 mg of the ethanol-prepared API-CapAcid solid in 1 mL water: insoluble solution
[4]; Method 2 solid
  dissolution of 70 mg of the ethanol-prepared API-CapAcid solid in 1 mL water: insoluble solution

## N=C(N)c1ccc2cc(OC(=O)c3ccc(N=C(N)N)cc3)ccc2c1 [Nafamostat]
[2]; 1:1 ratio of API to CapAcid
  pH of the solution before titration: 0.49
  final pH: 6.99
[2]; 2:1 ratio of API to CapAcid
  pH of the solution before titration: 1.55
  final pH: 6.96
[5]
  Osmolality: 354.3 mOsm/Kg
[6]; [17]
  concentration (FB equivalents) at which the freebase dissolved: 33300 µg/mL
[6]; [18]
  concentration (FB equivalents) at which the freebase dissolved: 3000 µg/mL
[6]; API FB with Captisol® Sodium 1 molar equivalent, water, stirring 30 minutes
  concentration at which the freebase dissolved: ~16700 µg/mL

## CN1CCC[C@@H]1Cc1c[nH]c2ccc(CCS(=O)(=O)c3ccccc3)cc12 [eletriptan]
[7]; 2:1 ratio to captisol compared to 4:1 ratio
  solubility compared to higher API:captisol ratio: superior solubility
[7]; 4:1 ratio to captisol
  appearance at higher API:captisol ratio: precipitation
[2]; 1:1 ratio of API to CapAcid
  pH of the solution before titration: 0.48
  final pH: 6.06
[2]; 2:1 ratio of API to CapAcid
  pH of the solution before titration: 1.42
  final pH: 6.08
[2]; 4:1 ratio of API to CapAcid
  pH of the solution before titration: 2.34
  final pH: 6.01
[4]
  pH of the ethanol solution prior to titration: 8.02
  dissolution of 70 mg of the ethanol-prepared API-CapAcid solid in 1 mL water: became cloudy but a large amount of oil remained at the bottom
[3]
  Reported Salt Solubility: <1 mg/mL^16
[6]; [17]
  concentration (FB equivalents) at which the freebase dissolved: 33300 µg/mL
[6]; [18]
  concentration (FB equivalents) at which the freebase dissolved: ~8300 µg/mL
[6]; 4:1 ratio of API to CapAcid, 100 mg FB in 30 mL water, stirring for 2 days
  dissolution by visual inspection: most of the FB dissolved and the solution was cloudy

## COc1ccc2c(c1)[C@]13CCCC[C@@H]1[C@H](C2)N(C)CC3 [DXM]
[6]; 70 mg/mL formulations
  solubility as stoichiometric (6.5:1) CapAcid salt compared with known API salts, in words: dramatic improvement in solubility

## CC[C@H](C)C[C@H](C)CCCCCCCCC(=O)N[C@H]1C[C@@H](O)[C@@H](NCCN)NC(=O)[C@@H]2[C@@H](O)CCN2C(=O)[C@H]([C@H](O)CCN)NC(=O)[C@H]([C@H](O)[C@@H](O)c2ccc(O)cc2)NC(=O)[C@@H]2C[C@@H](O)CN2C(=O)[C@H]([C@@H](C)O)NC1=O [Caspofungin]
[1]; [12]
  Osmolality: 59 mOsmol/kg
[1]; [19]
  Osmolality: 94 mOsm/kg
[1]; [20]
  Osmolality: 94 mOsmol/kg
[1]; [21]
  Osmolality: 209.3 mOsmol/kg
[1]; [13]
  Osmolality: 59** mOsm/kg
[1]; [22]
  Osmolality: 209.3 mOsm/kg
[2]; [16]
  pH of the solution prior to titration: 7.78
[2]; [23]
  pH of the solution prior to titration: 6.13
[2]; [19]
  pH: 5.86
[2]; [24]
  pH: 7.04

## CCC(CC)COC(=O)[C@H](C)N[P@](=O)(OC[C@H]1O[C@@](C#N)(c2ccc3c(N)ncnn23)[C@H](O)[C@@H]1O)Oc1ccccc1 [Remdesivir]
[3]
  Reported Freebase Solubility: Insoluble^15

## Cc1ncc2n1-c1ccc(Cl)cc1C(c1ccccc1F)=NC2 [Midazolam]
[2]; 3:1 ratio, after 0.5 M HCl redissolved the solid
  final pH of the solution: 2.86
[2]; 3:1 ratio, after 360 μL total 2M NaOH
  pH when solids began to crash out: 2.92
[6]; 3:1 ratio of API to CapAcid (relative to the cyclodextrin), 300.8 mg FB in 10 mL water
  highest achievable pH without precipitation of freebase solids: 3.15
[6]; 3:1 ratio of API to CapAcid (relative to the cyclodextrin), 10 mL water
  dissolution by visual inspection: transparent colorless solution
[6]; CapAcid 1 molar equivalent relative to H^+, 300.8 mg FB in 10 mL water, 30 minutes
  dissolution by visual inspection: cloudy suggesting incomplete dissolution

## C=CCN1CC[C@]23c4c5ccc(O)c4O[C@H]2C(=O)CC[C@@]3(O)[C@H]1C5 [Naloxone]
[1]; [19]
  Osmolality: 279 mOsm/kg
[1]; [20]
  Osmolality: 279 mOsmol/kg
[1]; [21]
  Osmolality: 531.7 mOsmol/kg
[1]; [13]
  Osmolality: 139.7 mOsm/kg
[1]; [22]
  Osmolality: 531.7 mOsm/kg
[2]; [19]
  pH: 4.39
[2]; [25]
  pH: 6.01
[2]; [24]
  pH: 5.98
[3]
  Reported Freebase Solubility: 1415 µg/mL
  Reported Salt Solubility: 50 mg/mL^13
[6]; 70 mg/mL FB, 1.1 equivalents CapAcid
  pH past which the freebase crashed out: > 6.00

## NC12CC3CC(CC(C3)C1)C2 [1-Amantadine]
[1]; [12]
  Osmolality: 411.6 mOsmol/kg
[1]; [19]
  Osmolality: 832 mOsm/kg
[1]; [21]
  Osmolality: 1,446.7 mOsmol/kg
[1]; [13]
  Osmolality: 411.6 mOsm/kg
[1]; [22]
  Osmolality: 1,446.7 mOsm/kg
[2]; [16]
  pH of the solution prior to titration: 1.43
[2]; [23]
  pH of the solution prior to titration: 3.93
[2]; [19]
  pH: 5.67
[2]; [25]
  pH: 6.97
[2]; [24]
  pH: 6.99

## NC1C2CC3CC(C2)CC1C3 (stereo not drawn) [2-Amantadine]
[1]; [12]
  Osmolality: 435.7 mOsmol/kg
[1]; [19]
  Osmolality: 826.7 mOsm/kg
[1]; [21]
  Osmolality: 1,492.7 mOsmol/kg
[1]; [13]
  Osmolality: 435.7 mOsm/kg
[1]; [22]
  Osmolality: 1492.7 mOsm/kg
[2]; [16]
  pH of the solution prior to titration: 1.29
[2]; [23]
  pH of the solution prior to titration: 5.63
[2]; [19]
  pH: 6.94
[2]; [25]
  pH: 7.06
[2]; [24]
  pH: 7.01

## NCC[C@H](O)C(=O)N[C@@H]1C[C@H](N)[C@@H](O[C@H]2O[C@H](CN)[C@@H](O)[C@H](O)[C@H]2O)[C@H](O)[C@H]1O[C@H]1O[C@H](CO)[C@@H](O)[C@H](N)[C@H]1O [Amikacin]
[1]; [9]
  Osmolality: 287 mOsmol/kg
[1]; [10]
  Osmolality: 504.3 mOsmol/kg
[1]; [11]
  Osmolality: 287* mOsm/kg
[1]; [12]
  Osmolality: 268 mOsmol/kg and 252.2 mOsmol/kg
[1]; [13]
  Osmolality: 1: 268 mOsm/kg and 2: 252.3 mOsm/kg
[1]; [14]
  Osmolality: 504.3* mOsm/kg
[2]; [15]
  pH of the solution prior to titration: 1.28
[2]; [16]
  pH of the solution prior to titration: 1.13 and 1.25
[8]
  pKa: 8.1^14

## COc1c(OCCCN2CCOCC2)ccc2c1N=C(NC(=O)c1cnc(N)nc1)N1CCN=C21 [Copanlisib]
[2]; 1:1 ratio of API to CapAcid
  pH of the solution before titration: 0.76
  final pH: 6.13
[2]; 2:1 ratio of API to CapAcid
  pH of the solution before titration: 2.10
[4]
  pH of the ethanol solution prior to titration: 0.66
  dissolution of 70 mg of the ethanol-prepared API-CapAcid solid in 1 mL water: became cloudy with a brown precipitate at the bottom
[3]
  Reported Freebase Solubility: Insoluble^19
  Reported Salt Solubility: 0.023 mg/mL^18
[6]; [17]
  concentration (FB equivalents) at which the freebase dissolved: 33300 µg/mL
[6]; 2:1 ratio of API to CapAcid, 100 mg FB in 30 mL water (3 mg/mL)
  dissolution by visual inspection: clear with a small amount of undissolved oil
[6]; 2:1 ratio of API to CapAcid, target 3 mg/mL
  pH at which precipitation occurred on titration with NaOH: 2.20

## COC(=O)[C@@H](N)Cc1ccc(O)c(O)c1 [Melevodopa]
[1]; [12]
  Osmolality: 605.7 mOsmol/kg
[1]; [13]
  Osmolality: 605.7 mOsm/kg
[2]; [16]
  pH of the solution prior to titration: 1.22
[2]; [25]
  pH: 6.97
